Measured values taken from PubChem BioAssay AID2060501 (Molecular Pharmacology Branch, DTP, NCI, 2025).

Test system: 282377-053-R-J1-PDC complex spheroids, viability
Assay: Anticancer human tumor 282377-053-R-J1-PDC patient-derived colon adenocarcinoma cell line growth inhibition [GQUAD]
Settings: for IC50: curve of first compound; for viability, T/C: stronger effect = lower value
How it was run: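 Viability of tumor cells grown as complex spheroids with endothelial and stromal cells, exposed to drug combinations. Top concentration at or near clinical Cmax (else 10 microM), diluted in half-log increments.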

[1] = second compound 0.0316 µM, first compound 0.000999 µM
[2] = second compound 0.0316 µM, first compound 0.00316 µM
[3] = second compound 0.0316 µM, first compound 0.00999 µM
[4] = second compound 0.0316 µM, first compound 0.0316 µM
[5] = second compound 0.0316 µM, first compound 0.0999 µM
[6] = second compound 0.0316 µM, first compound 0.316 µM
[7] = second compound 0.1 µM, first compound 0.000999 µM
[8] = second compound 0.1 µM, first compound 0.00316 µM
[9] = second compound 0.1 µM, first compound 0.00999 µM
[10] = second compound 0.1 µM, first compound 0.0316 µM
[11] = second compound 0.1 µM, first compound 0.0999 µM
[12] = second compound 0.1 µM, first compound 0.316 µM
[13] = second compound 0.316 µM, first compound 0.000999 µM
[14] = second compound 0.316 µM, first compound 0.00316 µM
[15] = second compound 0.316 µM, first compound 0.00999 µM
[16] = second compound 0.316 µM, first compound 0.0316 µM
[17] = second compound 0.316 µM, first compound 0.0999 µM
[18] = second compound 0.316 µM, first compound 0.316 µM
[19] = second compound 1 µM, first compound 0.000999 µM
[20] = second compound 1 µM, first compound 0.00316 µM
[21] = second compound 1 µM, first compound 0.00999 µM
[22] = second compound 1 µM, first compound 0.0316 µM
[23] = second compound 1 µM, first compound 0.0999 µM
[24] = second compound 1 µM, first compound 0.316 µM
[25] = second compound 3.16 µM, first compound 0.000999 µM
[26] = second compound 3.16 µM, first compound 0.00316 µM
[27] = second compound 3.16 µM, first compound 0.00999 µM
[28] = second compound 3.16 µM, first compound 0.0316 µM
[29] = second compound 3.16 µM, first compound 0.0999 µM
[30] = second compound 3.16 µM, first compound 0.316 µM
[31] = second compound 10 µM, first compound 0.000999 µM
[32] = second compound 10 µM, first compound 0.00316 µM
[33] = second compound 10 µM, first compound 0.00999 µM
[34] = second compound 10 µM, first compound 0.0316 µM
[35] = second compound 10 µM, first compound 0.0999 µM
[36] = second compound 10 µM, first compound 0.316 µM
[37] = second compound 0.0316 µM, first compound 0.1 µM
[38] = second compound 0.0316 µM, first compound 1 µM
[39] = second compound 0.0316 µM, first compound 3.16 µM
[40] = second compound 0.0316 µM, first compound 10 µM
[41] = second compound 0.1 µM, first compound 0.1 µM
[42] = second compound 0.1 µM, first compound 1 µM
[43] = second compound 0.1 µM, first compound 3.16 µM
[44] = second compound 0.1 µM, first compound 10 µM
[45] = second compound 0.316 µM, first compound 0.1 µM
[46] = second compound 0.316 µM, first compound 1 µM
[47] = second compound 0.316 µM, first compound 3.16 µM
[48] = second compound 0.316 µM, first compound 10 µM
[49] = second compound 1 µM, first compound 0.1 µM
[50] = second compound 1 µM, first compound 1 µM
[51] = second compound 1 µM, first compound 3.16 µM
[52] = second compound 1 µM, first compound 10 µM
[53] = second compound 3.16 µM, first compound 0.1 µM
[54] = second compound 3.16 µM, first compound 1 µM
[55] = second compound 3.16 µM, first compound 3.16 µM
[56] = second compound 3.16 µM, first compound 10 µM
[57] = second compound 10 µM, first compound 0.1 µM
[58] = second compound 10 µM, first compound 1 µM
[59] = second compound 10 µM, first compound 3.16 µM
[60] = second compound 10 µM, first compound 10 µM
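Also: spheroids exposed to compounds for 7 days before readout.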
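For viability, T/C in this document: percent of vehicle DMSO control viability with 100% = untreated-like growth.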

CC[C@@]1(O)C(=O)OCc2c1cc1n(c2=O)Cc2cc3c(CN(C)C)c(O)ccc3nc2-1 + CN(C)c1ccc(Nc2c3ccc(NC(=O)CCN4CCCC4)cc3nc3cc(NC(=O)CCN4CCCC4)ccc23)cc1
IC50 (second compound 0.0316 µM): > 316 nM
IC50 (second compound 0.1 µM): > 316 nM
IC50 (second compound 0.316 µM): > 316 nM
IC50 (second compound 1 µM): > 316 nM
IC50 (second compound 3.16 µM): > 316 nM
IC50 (second compound 10 µM): > 316 nM
viability, T/C [1]: 108%
viability, T/C [2]: 102%
viability, T/C [3]: 103%
viability, T/C [4]: 118%
viability, T/C [5]: 104%
viability, T/C [6]: 91%
viability, T/C [7]: 92.8%
viability, T/C [8]: 103%
viability, T/C [9]: 95.2%
viability, T/C [10]: 107%
viability, T/C [11]: 115%
viability, T/C [12]: 90.5%
viability, T/C [13]: 105%
viability, T/C [14]: 113%
viability, T/C [15]: 88.5%
viability, T/C [16]: 88.3%
viability, T/C [17]: 104%
viability, T/C [18]: 101%
viability, T/C [19]: 99.3%
viability, T/C [20]: 101%
viability, T/C [21]: 93%
viability, T/C [22]: 89.7%
viability, T/C [23]: 108%
viability, T/C [24]: 87%
viability, T/C [25]: 90.6%
viability, T/C [26]: 87.3%
viability, T/C [27]: 97.8%
viability, T/C [28]: 86.2%
viability, T/C [29]: 102%
viability, T/C [30]: 82.2%
viability, T/C [31]: 88.5%
viability, T/C [32]: 85.7%
viability, T/C [33]: 94.7%
viability, T/C [34]: 79.7%
viability, T/C [35]: 77.3%
viability, T/C [36]: 97%

CCc1c2c(nc3ccc(O)cc13)-c1cc3c(c(=O)n1C2)COC(=O)[C@]3(O)CC + CN(C)c1ccc(Nc2c3ccc(NC(=O)CCN4CCCC4)cc3nc3cc(NC(=O)CCN4CCCC4)ccc23)cc1
IC50 (second compound 0.0316 µM): 170 nM
IC50 (second compound 0.1 µM): 162 nM
IC50 (second compound 0.316 µM): 148 nM
IC50 (second compound 1 µM): 117 nM
IC50 (second compound 3.16 µM): 211 nM
IC50 (second compound 10 µM): 218 nM
viability, T/C [1]: 102%
viability, T/C [2]: 104%
viability, T/C [3]: 85.5%
viability, T/C [4]: 69.5%
viability, T/C [5]: 61.8%
viability, T/C [6]: 40%
viability, T/C [7]: 104%
viability, T/C [8]: 90.9%
viability, T/C [9]: 92.1%
viability, T/C [10]: 60.7%
viability, T/C [11]: 61.2%
viability, T/C [12]: 40.9%
viability, T/C [13]: 110%
viability, T/C [14]: 107%
viability, T/C [15]: 71.6%
viability, T/C [16]: 70.9%
viability, T/C [17]: 53.8%
viability, T/C [18]: 43%
viability, T/C [19]: 95.2%
viability, T/C [20]: 97.6%
viability, T/C [21]: 92.4%
viability, T/C [22]: 76.8%
viability, T/C [23]: 51.2%
viability, T/C [24]: 42.5%
viability, T/C [25]: 103%
viability, T/C [26]: 105%
viability, T/C [27]: 91.6%
viability, T/C [28]: 68.7%
viability, T/C [29]: 63.1%
viability, T/C [30]: 43.7%
viability, T/C [31]: 108%
viability, T/C [32]: 102%
viability, T/C [33]: 99.5%
viability, T/C [34]: 86.2%
viability, T/C [35]: 63.1%
viability, T/C [36]: 43.6%

COc1cc(C2c3cc4c(cc3C(OC3OC5COC(C)OC5C(O)C3O)C3COC(=O)C23)OCO4)cc(OC)c1O (stereo not drawn) + CN(C)c1ccc(Nc2c3ccc(NC(=O)CCN4CCCC4)cc3nc3cc(NC(=O)CCN4CCCC4)ccc23)cc1
IC50 (second compound 0.0316 µM): > 10000 nM
IC50 (second compound 0.1 µM): > 10000 nM
IC50 (second compound 0.316 µM): > 10000 nM
IC50 (second compound 1 µM): > 10000 nM
IC50 (second compound 3.16 µM): > 10000 nM
IC50 (second compound 10 µM): > 10000 nM
viability, T/C [4]: 94.2%
viability, T/C [37]: 94.2%
viability, T/C [6]: 86.6%
viability, T/C [38]: 117%
viability, T/C [39]: 86.7%
viability, T/C [40]: 68.2%
viability, T/C [10]: 105%
viability, T/C [41]: 85.4%
viability, T/C [12]: 101%
viability, T/C [42]: 86%
viability, T/C [43]: 75%
viability, T/C [44]: 67.6%
viability, T/C [16]: 108%
viability, T/C [45]: 93%
viability, T/C [18]: 99%
viability, T/C [46]: 95.6%
viability, T/C [47]: 97.7%
viability, T/C [48]: 66.4%
viability, T/C [22]: 97.4%
viability, T/C [49]: 67.8%
viability, T/C [24]: 114%
viability, T/C [50]: 105%
viability, T/C [51]: 89.2%
viability, T/C [52]: 60.8%
viability, T/C [28]: 94.7%
viability, T/C [53]: 90%
viability, T/C [30]: 120%
viability, T/C [54]: 106%
viability, T/C [55]: 86%
viability, T/C [56]: 66.8%
viability, T/C [34]: 90.3%
viability, T/C [57]: 90.4%
viability, T/C [36]: 105%
viability, T/C [58]: 105%
viability, T/C [59]: 90.4%
viability, T/C [60]: 64.3%

Nc1ccn(C2OC(CO)C(O)C2(F)F)c(=O)n1 (stereo not drawn) + CN(C)c1ccc(Nc2c3ccc(NC(=O)CCN4CCCC4)cc3nc3cc(NC(=O)CCN4CCCC4)ccc23)cc1
IC50 (second compound 0.0316 µM): 290 nM
IC50 (second compound 0.1 µM): 296 nM
IC50 (second compound 0.316 µM): 263 nM
IC50 (second compound 1 µM): 271 nM
IC50 (second compound 3.16 µM): 227 nM
IC50 (second compound 10 µM): 228 nM
viability, T/C [4]: 112%
viability, T/C [37]: 68.5%
viability, T/C [6]: 49.7%
viability, T/C [38]: 35.8%
viability, T/C [39]: 32.5%
viability, T/C [40]: 20.7%
viability, T/C [10]: 114%
viability, T/C [41]: 78.7%
viability, T/C [12]: 42.9%
viability, T/C [42]: 37.7%
viability, T/C [43]: 30.8%
viability, T/C [44]: 20.3%
viability, T/C [16]: 115%
viability, T/C [45]: 77.9%
viability, T/C [18]: 40.9%
viability, T/C [46]: 35.8%
viability, T/C [47]: 33.7%
viability, T/C [48]: 19.7%
viability, T/C [22]: 95%
viability, T/C [49]: 77.6%
viability, T/C [24]: 42.7%
viability, T/C [50]: 35.7%
viability, T/C [51]: 32.7%
viability, T/C [52]: 20.3%
viability, T/C [28]: 87.6%
viability, T/C [53]: 59.9%
viability, T/C [30]: 44.5%
viability, T/C [54]: 38.3%
viability, T/C [55]: 38.5%
viability, T/C [56]: 26.9%
viability, T/C [34]: 92.1%
viability, T/C [57]: 74%
viability, T/C [36]: 40.2%
viability, T/C [58]: 30.9%
viability, T/C [59]: 36.3%
viability, T/C [60]: 22.8%
